Measured values: patent US7196063B1, “Peptides and pharmaceutical compositions comprising same” (NST NeuroSurvival Technologies Ltd., priority 1999, dated 2007)
Several values for one entry are separate records, joined by “and”; a condition that tells them apart may be missing. Identical values can stand only once. Entries after “also recorded” stand apart in the source; their conditions may differ. Like-named read-outs stand apart in the source and are kept apart here.

What was measured:
activated platelets = details: 2 μM
Description: Exposure of PS on the outer leaflet of platelets upon their activation is essential for efficient activation of coagulation factors. […] Fresh platelets were received from the Blood Bank in Beilinson Hospital, Israel. The platelets were centrifuged (10 minutes, 2700×g), washed and re-suspended in platelets buffer (137 mM NaCl, 2 mM MgCl2, 0.5 mM NaPi, 5 mM glucose and 20 mM Hepes pH 7.4). 100 μl of platelets were diluted 10 fold and activated for 10 minutes with 2 μM of the calcium ionophore A23187 in the presence of 5 mM of CaCl2. […] The platelets were then washed with platelets buffer and incubated with 5 μg/ml of streptavidin conjugated to fluorescein (FITC). Incubation was for 15 minutes at room temperature, followed by a wash and suspention in platelets buffer. The labeled platelets were subjected to a FACS analysis as described above.

HUVEC cells [1] = test: Thrombin generation by HUVEC cells; assay type: cell-based, Human
From the text: In vivo, vascular endothelial cells are known to catalyze the formation of thrombin, due to expression of PS on their plasma membrane, at which pro-coagulant complexes are assembled (Van Hardee W L et al., 1994, Biochem J. 302, 305–312). Endothelial cells (EC) play an active role in determining the pro-coagulant/anti-coagulant balance in the vascular system (Gimborne M A et al., 1995, Ann. N. Y. Acad Sci 748, 122–132). Perturbed endothelial cells dramatically increase their pro-coagulant state. […] (FIG. 4D). When HUVEC cells (1.5×10^5) were incubated with the S-2366 substrate, thrombin generation was evident after a lag time of 12.5 minutes, which reflects the time required to assemble a functional complex on the HUVEC surface.
The effect of NST516 compound on HUVEC mediated-thrombin generation was studied.

HUVEC cells [2] = test: Binding to endothelial HUVEC cells by FACS analysis; assay type: cell-based, Human
Description: Binding detection was done using flow cytometric analysis to populations of HUVEC cells.
HUVEC (CC-2517, obtained from Clonetics, Walkersville, Md.) were grown on tissue culture flasks in Endothelial cell medium (EGM-2 Bulletkit, CC 3162, Clonetics). Mid-confluent cultures were harvested using Trypsine/EDTA solution (CC-5012, Clonetics). The cells were rinsed twice with TBS containing 2% BSA and kept on ice. Samples of 10^6 cells were tested for binding.
Cells were washed in 1 ml of TBS-BSA and centrifuged as before and then suspended in 100 μl of TBS-BSA containing streptavidin conjugated to fluorescein (FITC) for detection of the bound biotinylated compound. […] Thereafter, 400 μl of TBS-BSA were added and cells were entrifuged and re-suspended in 400 μl of TBS and taken for FACS analysis.

apoptotic hepatocytes = assay type: in vivo, mice; details: mouse, in vivo
Description: Massive hepatic apoptosis can be induced within 1–2 hr in mice following intravenous injection of anti-Fas antibody (Ogasawara J. et al., 1993, Nature, 364, 806–809). […] Five-weeks-old male BALB/c mice were injected intravenously with 10 μg/animal of purified hamster anti-Fas mAb (Jo2, PharMingen, San Diego, Calif.) using the model described by Ogasawara et. al. (Nature, 1993, 364, 806–809). […] Injections were performed at different time intervals between 5 min–2 hr after antibody treatment. […] All animals were killed 2 hr after administration of antibody followed by organ removal. Heart, lung and liver were collected. Liver were sectioned transversely across the mid-portion of each lobe; organs were fixed in phosphate-buffered formalin for histological and immunohisto-chemical analyses.
Formalin fixed paraffin-embedded tissues were sectioned (5 μm) for staining with Hematoxylin/Eosin or other techniques. Endogenous peroxidase activity was blocked by incubation with 3% H2O2.
After washing with PBS, staining was developed with 3,3-diaminobenzidine tetrahydrochloride (DAB), and counterstained with Hematoxylin.
Liver sections from different lobes were used for detection of stained apoptotic cells compared to normal cells. Using light microscopy (×400), twenty fields of stained cells were evaluated. A ratio between the number of stained apoptotic hepatocytes versus stained normal hepatocytes in the field was defined. The stained cell's score (%) corresponds to the mean of the values for the twenty evaluated fields.
The percentage of apoptotic cells in the fields was estimated by evaluating parallel sections stained with Hematoxylin/Eosin. Analysis was performed blindly, since the pathologist performing the histological evaluation was unaware of the assignment of mice to the treatment or control group.
To quantitate the microscopic examination of the pharmacokinetics studies, the number of stained cells from 20 microscopic fields was counted.

apoptotic HeLa cells = details: 500 nM, FACS
Description: Detection of binding to apoptotic HeLa cells was performed according to the following procedure: Cells were plated on tissue culture plates at a density of 5×10^6 cells/10 cm dish, and grown in their normal medium at 37° C. for 18 hr. The medium was replaced with a medium containing 2% FCS and 500 μM of dopamine. Eighteen hours later, floating cells that were identified as advanced apoptotic cells were collected and transferred to a 50 ml tube. To evaluate the level of apoptosis in the cultures, aliquots of 10^5 cells from the cultures were plated on 48 wells plate and stained with Hoechst 33342 dye (Molecular Probes) at a concentration of 1 mg/ml for 20 min (as described above). Non-treated cells served as control. For collecting the non-treated cells, the medium of the culture was aspirated and discarded, the cells were rinsed with growing medium and 2 ml of medium were added to the culture dish. The cells were detached from the culture dish using a cell scraper and separated to single cells by passage through a syringe with a 18G needle.
The reactions were incubated at room temperature for 40 minutes and then 400 μl of TBS was added and cells were collected by centrifugation at 3000×g for 3 minutes. Cells were washed in 1 ml of TBS and centrifuged as before and detecting of the bound compound was performed using 100 μl of TBS containing streptavidin conjugated to fluorescein (FITC) (016-090-084 from Jackson ImmunoResearch lab. Inc.). Incubation was for 15 minutes at room temperature in the dark. Thereafter, 400 μl of TBS was added and cells were centrifuged and washed again with 1 ml of TBS as before, re-suspended in 400 μl of TBS and then taken for FACS analysis. The FACS analysis was performed on Beckton-Dickinson cell sorter, using lysis II software. Excitation was at 488 nm and emission for FITC detection was at 535 nm and for PI detection at 585 nm.

[3] = tested on: Russell Viper Venom (RVV)-mediated clotting; test: RVV coagulation test in normal plasma; assay type: biochemical
Description: Reactions were started by mixing 100 μl of RVV reagent, and 100 μl of quality control plasma collected from normal individuals (84670-11, Instrumentation Laboratory, Italy). Clotting time was detected by visual inspection following mixing the reaction ingredients in a test tube, until the suspension could no longer be aspirated with a pastuer pipette. Clotting time was measured by two separate researchers.
100 μl of LA screen was then added and clotting time was detected as described.
The control clotting time, when no compound was added to normal plasma was 40 seconds.

## Myristate-KVSFFCKNKEKKC-K (SEQ ID NO:1) (biotin) [NST513]
Activated platelets
  binding intensity (FITC mean value), activated vs control non-treated platelets: 20 times
Activated platelets; activated (A23187) vs control platelets
  increase in the percentage of platelets stained with FITC upon activation: 6 fold
HUVEC cells [1]
  delay in thrombin generation: 2.5 min
  thrombin generation by HUVEC cells: dramatic inhibition of thrombin generation; also recorded: fully block thrombin generation; also recorded: slight inhibition of thrombin generation; also recorded: further delayed the lag period; also recorded: total blockage of thrombin formation
  thrombin generation by HUVEC cells, dose response: dose dependent inhibition of thrombin generation
HUVEC cells [2]; 500 nM
  binding to HUVEC cells: strong binding
  cells FITC positive: About 70%
HUVEC cells [2]; 250 μM
  fraction of HUVEC cells labeled: about 50%
Apoptotic hepatocytes
  increase in number of stained apoptotic cells as compared to non specific staining of non-apoptotic cells: 3 times
  ratio of apoptotic stained cells vs non-apoptotic cells: 5 fold
  staining of normal hepatocytes: never observed
Apoptotic hepatocytes; iv
  staining of apoptotic hepatocytes in anti-Fas treated mice: observed at cytoplasma and cytoplasmatic border of apoptotic hepatocytes
Apoptotic HeLa cells
  binding to apoptotic versus control HeLa cells: strong labeling of apoptotic versus control cells
Apoptotic HeLa cells; PI and FITC
  increase in the percentage of apoptotic cells labeled, as compared to non-apoptotic cells: 5.5 fold
Apoptotic HeLa cells; listed as NST313
  binding to apoptotic versus control HeLa cells: specifically binds to apoptotic cells
[3]; RVV clotting time, read-out: EC50 (effective dose of 50%)
  EC50: 3 to 5 µM
[3]; RVV test, normal plasma, 2.5–20 μM, control 40 seconds
  prolongation of clotting time (factor): 3.75 and 3.5
